# In US6008222A (Bristol-Myers Squibb Company, priority 1997, dated 1999):
# Entries after “also recorded” stand apart in the source; their conditions may differ.
# Columns and labels:
# [1] = human, in vivo
# anxiolytic activity = conditions: cited from earlier work
# [2] = human, in vivo; cited from earlier work
# [3] = tested on: diazepam-withdrawn animals; conditions: cited from earlier work
# rat = conditions: systemic administration of 1-PP; cited from earlier work
# [4] = in vivo, cited from earlier work
# diazepam-naive subjects = conditions: previous studies; cited from earlier work
# [5] = six subject pharmacokinetic study: buspirone and 1-PP blood levels following seven days of drug administration
# antidepressant effect = conditions: co-administered with an antidepressant drug regimen such as fluoxetine; cited from earlier work
# [6] = tested on: anxiety disorders and depression; conditions: U.S. Pat. No. 3,717,634; cited from earlier work
# clinical = conditions: human, in vivo, po
# [7] = tested on: patients undergoing diazepam-withdrawal; conditions: human, in vivo; cited from earlier work
# [8] = J. Clin. Psychiatry, 57:7, July 1996; cited from earlier work
# cytochrome P4503A4 = conditions: cited from earlier work
# cytochrome P4503A3/4 = conditions: J. Clin. Psychiatry, 57:7, July 1996; cited from earlier work
smiles,measurement,setting,value
"c1cnc(N2CCNCC2)nc1 [1-PP, 1-(2-pyrimidinyl)-piperazine]",intra- and inter-patient variations in blood levels,[1],reduced
same,anxiolytic activity,anxiolytic activity; certain tests / earlier animal testing,(weak) antianxiety activity; also recorded: weak anxiolytic activity
same,antagonism of the anxiolytic and/or antidepressant action of buspirone,anxiolytic activity; other tests,antagonizes the desired anxiolytic and/or antidepressant action of buspirone
same,association of high 1-PP levels with undesired or adverse events,[2],associated with the occurrence of undesired or adverse events
same,effect in social interaction paradigms,[3],anxiogenic effect
same,antagonism of intracerebral buspirone activity,rat,could be blocked
same,plasma levels of 1-PP,[4],much higher plasma levels
same,effect on social interaction,diazepam-naive subjects,not shown any effect
"O=C1CC2(CCCC2)CC(=O)N1CCCCN1CCN(c2ncccn2)CC1 [Buspirone, 8-[4-[4-(2-pyrimidinyl)1-piperazinyl]butyl]-8-azaspiro(4,5)-decane,7,9-dione]",intra- and inter-patient variations in blood levels,[1],reduced
same,disappearance of buspirone,[5]; concurrent administration of nefazodone,delayed
same,augmentation of an antidepressant effect,antidepressant effect,effective
same,absorption,[4]; po,rapidly absorbed
same,effectiveness for the treatment of anxiety disorders and depression,[6],effective
same,AUC(0-t) at […],clinical,29.4 ± 9.9 ng·h/mL
same,Cmax at […],clinical,8 ± 3.3 ng/mL
same,Tmax at […],clinical,1 h
same,half-life at […],clinical; T1/2 of buspirone,2.6 ± 1.8 h
same,treatment of patients undergoing diazepam-withdrawal,[7],failed to adequately treat
CCc1nn(CCCN2CCN(c3cccc(Cl)c3)CC2)c(=O)n1CCOc1ccccc1 [Nefazodone],effect on concentration and toxicity of alprazolam and triazolam,[8],increasing the concentration and toxicity of alprazolam and triazolam
same,inhibition of buspirone metabolism,"[5]; in the presence of nefazodone, preliminary study data",marked inhibition of buspirone metabolism
same,inhibition of cytochrome P4503A4,cytochrome P4503A4,an inhibitor
same,inhibition of cytochrome P4503A3/4,cytochrome P4503A3/4,inhibition
